Measurements reported in US20240317735A1, “HYDROISOQUINOLINE OR HYDRONAPHTHYRIDINE COMPOUNDS FOR THE TREATMENT OF AUTOIMMUNE DISEASE” (Hoffmann-La Roche Inc., priority 2020, published 2024).

Test system: embryonic stem cells (D3) and 3T3 fibroblasts
Experiment: mouse Embryonic Stem Cell Test (mEST)
Assay type: cell-based
Details: <0.5 negative, >0.6 positive, 0.5-0.6 borderline
Description: The in vitro mouse Embryonic Stem Cell Test (mEST) assay is an implemented routine assay at Roche. The original EST was developed by Horst Spielmann and his group in 1997 as an in vitro model for the screening of embryotoxicity, based on a blastocyst-derived permanent embryonic mouse ESC (mESC) D3 cell line derived from mouse 129 strains and was validated by European Centre for the Validation of Alternative Methods (ECVAM).
We further optimized and modified the approach allowing for the application of the assay to pharmaceutical compounds.
The cytotoxicity (inhibition of growth) of 3T3 fibroblasts, which represents differentiated cells and the cytotoxicity of undifferentiated embryonic stem cells (D3) after 10 days of substance treatment serve as two assay endpoints. This is determined by the use of dehydrogenase enzymes, which are present in the intact mitochondria of living cells to convert yellow soluble substrate 3-(4,5-dimethythiazol-2-yl)-2,5-diphenyl tetrazolium bromide (MTT) into a dark blue insoluble formazan product, which gets sequestered within the cells and is detected quantitatively using an absorbance reader (570 nm) after solubilizing the cell membrane.
The third endpoint is the inhibition of differentiation of ES cells into myocards which are cardiac muscle cells after 10 days of treatment. The beating of this cells is evaluated by microscopy.
• 1) Cell passage with trypsin 0.05% EDTA for D3 cells. • 2) Assembly of the cell suspension: dilute cells to 2.5×10^4/mL with 18 ml media (for each test) in 50 mL Falcon tubes. • 3) Prepare the petri dishes (PD): add 5-10 mL sterile Dulbecco's PBS (Gibco) into each dish bottom, distribute over the whole dish. • 4) Dilution series of test compound in Eppendorf tubes: add 5 μL of compound (1:400 dilution) and 5 μL control solution (DMSO) to 2 mL cell suspension, vortex. • 5) Preparation of hanging drops in petridishes: vortex tube, aspirate suspension with automatic pipette and multi-dispense 20 μL drops onto the lid of the petri dish, add 2 mL in total in a concentric circle of drops (˜100 drops); quickly but smoothly turn the cover and put on PD; incubate for 3 days at 37° C./5% CO2.
• 1) Dilution series of compound in 14 mL PP tubes • 6 tubes for the concentrations; fill with 5 mL assay media • 1 tube for DMSO (solvent control) fill with 5 mL assay media • 2) Dilution series of compound in Eppendorf tubes • Add 12.5 μL of compound (1:400 dilution) and 12.5 μL control solution, vortex • 3) Transfer of embryoid bodies in a bacterial Petri dish • Carefully turn PD lid, check the drops for fungus contamination • Rinse several times the drops down with 5 mL of the prepared solution • Transfer in a bacterial petri dish Incubate for 3 days at 37° C./5% CO2 […]

Structure (SMILES)	Predictive scores D12_3
C[C@H]1CN(c2ccnc3c2cnn3C)Cc2ccc(OC[C@H]3CNCCN3)cc21 [Example 18, (4R)-4-methyl-2-(1-methylpyrazolo[3,4-b]pyridin-4-yl)-6-[[(2R)-piperazin-2-yl]methoxy]-3,4-dihydro-1H-isoquinoline]	0.11
C[C@H]1CN(c2ccnc3c2cnn3C)Cc2ccc(OC[C@@H]3CNCCN3)cc21 [Example 19, (4R)-4-methyl-2-(1-methylpyrazolo[3,4-b]pyridin-4-yl)-6-[[(2S)-piperazin-2-yl]methoxy]-3,4-dihydro-1H-isoquinoline]	0.05
CO[C@@H]1CN(c2ccc3c(c2)[C@@H](C)CN(c2ccnc4c2cnn4C)C3)C[C@H]1N [Example 20, (3R,4R)-4-methoxy-1-[(4R)-4-methyl-2-(1-methylpyrazolo[3,4-b]pyridin-4-yl)-3,4-dihydro-1H-isoquinolin-6-yl]pyrrolidin-3-amine]	0.49
CO[C@@H]1CN(c2ccc3c(n2)[C@@H](C)CN(c2cc(C)nc4c2cnn4C)C3)C[C@H]1N [Example 63, (3R,4R)-4-methoxy-1-[(8S)-6-(1,6-dimethylpyrazolo[3,4-b]pyridin-4-yl)-8-methyl-7,8-dihydro-5H-1,6-naphthyridin-2-yl]pyrrolidin-3-amine]	0.43
